From PubChem BioAssay AID1249 (Columbia University Molecular Screening Center, 2008)
Calls of active or inactive are those of the source. No rule for the calls is given here.

Test: cellular cytoskeleton assembly phenotype modulators – imaging, high-content imaging, retest and dose response, confirmation (AID 1249);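 also: compound exposure lasted 24 h before fixation; plate controls were untreated cells for no effect and reference compound treated cells for full effect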
Conditions: cell-based imaging, cytoskeleton assembly phenotype, high content; at 2 µM; hits give high values

| Structure (SMILES) | inhibition |
| --- | --- |
| Cc1ccc(CNC(=O)Cn2ccc3ccccc3c2=O)o1 | -10.7% (inactive) |
| CCCc1cc(=O)[nH]c(SCC(=O)Nc2nonc2N)n1 | 2.7% (inactive) |
| CN(C)c1nc(N(C)C)nc(N(C#N)CCOc2ccccc2)n1 | -6.3% (inactive) |
| O=C(O)c1cc2nc3c(c(C(F)(F)F)n2n1)CCc1ccccc1-3 | 3.7% (inactive) |
| Oc1ccc(Nc2nc(-c3ccc4ccccc4c3)cs2)cc1 | -9.7% (inactive) |
| Cn1c(CNc2ccccc2O)nc2ccccc21 | 1.8% (inactive) |
| O=C(CC(c1ccccc1)c1ccccc1)NCC1CCCO1 (stereo not given) | -0.2% (inactive) |
| Cc1nc([N+](=O)[O-])c(Br)n1CC(=O)c1ccc(Br)cc1 | -7.3% (inactive) |
| COc1ccc(/C=N/NC(=O)c2ccccc2Cl)cc1CSc1nc2ccccc2s1 | -6.6% (inactive) |
| Cc1ccc(NS(=O)(=O)c2cc(C(=O)NCCSC3CCCCC3)ccc2C)cc1 | -1.3% (inactive) |
| CCOC(=O)/C(=C\c1cccnc1)C(=O)c1cc(C(C)=O)c(Nc2ccccc2)s1 | 5.1% (inactive) |
| CC(C)C(=O)Nc1ccc(C(=O)NNC(=O)NC2CCCCC2)cc1 | -9.2% (inactive) |
| C=CCNC(=O)C1CC(=O)N(c2ccc(OCC(=O)Nc3cccc(OC)c3)cc2)C1 (stereo not given) | -2% (inactive) |
| Cc1cc(C)n(C(=O)c2ccc(NC(=O)C3COc4ccccc4O3)cc2)n1 (stereo not given) | 1.1% (inactive) |
| COc1cccc(OC)c1NC(=O)CN1CCC(NC(=O)c2cccc(F)c2)CC1 | 0.4% (inactive) |
| Cc1ccccc1CS(=O)(=O)c1nnc([C@H](Cc2ccccc2)NC(=O)OC(C)(C)C)o1 | 0.1% (inactive) |
| O=S(=O)(c1ccc(Cl)cc1)c1snnc1-c1ccccc1 | 9.2% (inactive) |
| COc1cc(/C=N/NC(=O)Nc2ccccc2)ccc1OCCOc1ccccc1C | 3.1% (inactive) |
| CCOC(=O)N1CCN(C(=O)COc2ccc(Cl)cc2C)CC1 | 0.3% (inactive) |
| O=C1c2cccc3c([N+](=O)[O-])ccc(c23)C(=O)N1c1nccs1 | -0.1% (inactive) |
| CCN(Cc1cc2cc(C)ccc2[nH]c1=O)C(=O)c1cccc(OC)c1 | 2.3% (inactive) |
| Cc1cc(C(=O)NN)c2cc(Br)ccc2n1 | -2% (inactive) |
| COc1ccc(C(C)(C)C)cc1S(=O)(=O)N1CCN(C)CC1 | -1.6% (inactive) |
| Cc1ccc(-c2nnc3ccc(SCC(=O)Nc4cc(C)on4)nn23)cc1 | -5.1% (inactive) |
| CC1=C(C(=O)OCCOC(C)C)C(c2cccnc2)C2=C(CCCC2=O)N1 (stereo not given) | -18.2% (inactive) |

| Structure (SMILES) | inhibition |
| --- | --- |
| O=C(C1CCC1)N1CCc2cc(S(=O)(=O)Nc3ccc4c(c3)OCCO4)ccc21 | 3.8% (inactive) |
| COC(=O)c1c(NC(=O)c2ccc(S(=O)(=O)N3CCOCC3)cc2)sc2c1CCN(C)C2 | -2.4% (inactive) |
| CC(NC(=O)COC(=O)Cc1ccsc1)C1CC2CCC1C2 (stereo not given) | -7.6% (inactive) |
| CCCc1nc(SCC(=O)Nc2nnc(CC)s2)c2c(C)c(C)sc2n1 | 8.7% (inactive) |
| COC(=O)c1sccc1NC(=O)CCC1CCCC1 | -0.4% (inactive) |
| FC(F)(F)c1cc(-c2ccc3c(c2)OCO3)nc(NCc2ccco2)n1 | -1.9% (inactive) |
| C=C1N2CCC(CC2)C1(O)c1ccccc1C (stereo not given) | -0.8% (inactive) |
| Cc1ccc(C)c(NC(=O)c2nnn(Cc3ccccc3)c2N)c1 | -0.1% (inactive) |
| CCOC(=O)C1=C(c2ccccc2)OC(N)=C(C#N)C1c1ccco1 (stereo not given) | -12.1% (inactive) |
| Cc1ccc2[nH]c3c(c2c1)CCC3=O | -8.6% (inactive) |
| O=C1C(=O)c2ccccc2-c2ccccc21 | -13.5% (inactive) |
| COc1cc2c(cc1NS(=O)(=O)N1CCCC1)oc1ccccc12 | 2.5% (inactive) |
| COc1cc(C(=O)N(Cc2ccco2)Cc2cc3ccccc3[nH]c2=O)cc(OC)c1OC | -1% (inactive) |
| Cc1ccc(Cl)cc1N1CCN(C(c2cccnc2)c2nnnn2C2CCCCC2)CC1 (stereo not given) | 12.1% (inactive) |
| O=C(CSc1nc2ccccc2s1)NNC(=S)Nc1ccc(Br)cc1 | -0.6% (inactive) |
| O=C(Nc1ccc(Oc2ccccc2)cc1)C1CCCN(c2ncccn2)C1 (stereo not given) | 11.6% (inactive) |
| CCOC(=O)c1ccc(CNC(=O)CCC(=O)O)cc1 | -7% (inactive) |
| Cc1nonc1NC(=O)CSc1nc(C2CCCCC2)nc2ccccc12 | -6.5% (inactive) |
| O=C(CCS(=O)(=O)c1ccccc1)Nc1nc2c(s1)COc1ccccc1-2 | 6.6% (inactive) |
| C/C(=C\C(=O)c1cccnc1)Nc1ccc(C)c(C)c1 | 1.3% (inactive) |
| Oc1ccc(N2CCN(c3ncnc4sc5c(c34)CCC5)CC2)cc1 | -5.1% (inactive) |
| COc1ccc(OC)c(C(=O)c2coc3ccc(O)cc23)c1 | -8.7% (inactive) |
| Cc1ccccc1Cn1nc(C)c(NC(=O)c2cc(-c3cccs3)on2)c1C | 3.8% (inactive) |
| CCCC(C(=O)NC1CCCC1)N(CCCN1CCOCC1)C(=O)c1snc(C(N)=O)c1N (stereo not given) | -2.3% (inactive) |
| CN1CCc2nc3sc(C#N)c(N)c3c(-c3cccs3)c2C1 | 5.3% (inactive) |
